Measured values from patent US8207142B2, “Inhibitor of DNA methylation” (priority 2001, dated 2012).

What was measured:
[1] = test system: silenced hph gene; test: Plate assay, reactivation of the methylation-silenced hph gene (hygromycin resistance), strain N644; format: cell-based, Neurospora crassa; settings: 2.5-400 nmoles on paper disc
Experimental: FIG. 5 is a series of photographs of plate assays, showing reactivation of the silenced hph gene in Neurospora crassa by Zebularine. N. crassa strain N644 has a single copy of the E. coli hph gene that was silenced by cytosine methylation. The active hph gene confers hygromycin resistance.
Treatments are indicated above each plate; the listed compound was applied to the paper discs in the middle of each plate. With the exception of the “no hygromycin” plate, all plates had 5 mg hygromycin B added in a 5 ml 0.7% agar overlay after 24 hours growth at 32° C. The plates were then incubated an additional two days at the same temperature and photographed.
Plate tests were performed with solidified medium essentially as previously described (Selker, Proc. Natl. Acad. Sci. USA 95;9430-9435, 1998). In brief, approximately 2,000 N. crassa conidia of the indicated were plated on each plate. Drugs were administered from a 4-mm diameter Whatman™ no. 1 paper disk placed in the middle of each plate shortly after plating.
N. crassa was used to quantitatively examine the effectiveness of Zebularine at reducing or reversing methylation (Selker, Proc. Natl. Acad. Sci. USA, 95:9430-9435, 1998). […]

[2] = target: T1, DNMT3b3 (Homo sapiens, UniProt Q9UBC3); test: Western blot of DNMT3b3 level in treated T24 cells; format: cell-based; settings: 500 μM for 48 h
T1 construct: protein extracts were isolated from both treated and untreated T24; endogenous in cells; host or cells: T24 human bladder carcinoma cells (ATCC)
Experimental: The mRNA for DNMT3b3 is the only 3b transcript expressed in T24 cells, and DNMT3a levels could not be assessed because no suitable antibodies against DNMT3a are available. Thus, with reference to FIG. 12, protein extracts were isolated from both treated and untreated T24 (population 3 million cells, treated with 500 μM Zebularine for 48 h), and […] with specific antibodies for DNMT1 and DNMT3b3 as shown in FIG. 12. β-actin was included as a loading control, and the molecular weights of each protein are indicated.

[3] = Body weight of tumor-bearing BALB/c nu/nu mice; format: in vivo
Experimental: EJ6 cells (5×10^5/injection) were inoculated subcutaneously into the right and left flanks of male BALB/c nu/nu mice at 4-6 weeks of age (available from Harlan, San Diego, Calif.). Zebularine treatments were initiated after macroscopic (50-200 mm 3) tumor formation (4-6 weeks later). Zebularine (500 mg/kg or 1000 mg/kg) was administered daily via intraperitoneal injection or oral gauage feeding over a period of 18 days. Control mice received 0.45% saline administered via intraperitoneal injection or oral gavage feeding over a period of 18 days. Mice (n=30) were divided into five groups (control group, 500 mg/kg intraperitoneal injection, 500 mg/kg oral, 1000 mg/kg intraperitoneal injection, and 1000 mg/kg oral). Each treatment group consisted of a minimum of five animals (at least 6 tumors per group).
Similarly, each group of mice (n=5 or 6) was weighed at the indicated time points, and average body weight was plotted against days after initial treatment in FIG. 14.

[4] = test system: human p16 cDNA in EJ6 tumor cells; test: RT-PCR of p16 gene expression in EJ6 tumor cells growing in mice; format: in vivo; settings: EJ6 tumor cells in BALB/c nu/nu mice after treatment
Experimental: Total RNA was isolated from the tumors to analyze gene expression using conventional methods. DNA also was isolated, to measure the methylation status of p16 promoter by Ms-SnuPE as described below.
GAPDH mRNA levels were measured to control for the quantity and integrity of the input RNA. The control group represents tumors obtained from mice mock-treated either with 0.45% NaCl via intraperitoneal injection or oral gavage feeding. Results from one of six similar independent tumors are shown for each group in FIG. 15.

[5] = test system: T24 cells; test: Incorporation of Zebularine into DNA and RNA in T24 cells; format: in vitro ADME, human; settings: 10 μM, 1 μCi, 24 hr
Experimental: FIG. 19 is a bar graph depicting the relative incorporation of Zebularine into DNA and RNA in T24 cells, showing that approximately 7 times the amount of Zebularine is incorporated into RNA as DNA.
Following a similar incubation protocol in T24 cells (Zebularine (10 μM, 1 μCi) for 24 hr, cellular DNA and RNA were isolated by the tri-reagent method according to the manufacture's instructions. Levels of Zebularine and 2′-Deoxyzebularine were determined by measuring total radioactivity in purified RNA and DNA, respectively. The identity of Zebularine and 2′-Deoxyzebularine was accomplished by a reverse phase HPLC analysis of digested RNA and DNA and comparison against authentic standards. In FIG. 19 a bar graph depicts the relative incorporation of Zebularine into DNA and RNA in T24 cells, showing that approximately 7 times the amount of Zebularine is incorporated into RNA as DNA.

O=c1ncccn1[C@@H]1O[C@H](CO)[C@@H](O)[C@H]1O [Zebularine, 1-β-ribofuranosyl-1,2-dihydropyrimidin-2-one]
reactivation of silenced hph gene (conidia growth on hygromycin) [1]: reactivate the hph gene
level of DNMT3b3 [2]: significant reduction
weight loss ([3]; all treated groups: 500 or 1000 mg/kg daily, intraperitoneal or oral, 18 days): weight loss was minimal
greatest weight loss ([3]; group treated with 1000 mg/kg): ~7%
p16 gene expression in vivo (RT-PCR) [4]: Reactivation of p16 gene expression
amount incorporated into RNA relative to DNA [5]: approximately 7 times
